The record followed here is patent US4788202A, “Sulphonamide derivatives as α2 -adrenoceptor antagonists” (John Wyeth & Brother Limited, priority 1985, dated 1988).

One assay addresses T1, α1 -adrenoceptor (Rattus norvegicus, UniProt P43140).
T1 construct: method based on that of Gillespie Br. J. Pharmac 1972, 45 404-416; from tissue
T1 sequence (P43140 1-466): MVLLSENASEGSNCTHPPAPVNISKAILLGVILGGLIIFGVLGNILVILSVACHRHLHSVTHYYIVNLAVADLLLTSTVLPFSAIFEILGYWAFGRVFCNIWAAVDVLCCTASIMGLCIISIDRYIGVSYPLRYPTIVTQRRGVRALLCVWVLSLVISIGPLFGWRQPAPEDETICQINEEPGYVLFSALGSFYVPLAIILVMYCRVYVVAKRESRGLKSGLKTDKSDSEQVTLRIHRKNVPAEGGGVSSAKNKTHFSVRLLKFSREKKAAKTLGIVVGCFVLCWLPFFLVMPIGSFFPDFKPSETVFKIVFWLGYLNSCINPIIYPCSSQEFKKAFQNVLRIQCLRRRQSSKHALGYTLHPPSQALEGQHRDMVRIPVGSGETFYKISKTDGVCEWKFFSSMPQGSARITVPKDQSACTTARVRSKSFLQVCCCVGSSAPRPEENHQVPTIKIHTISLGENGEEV
In words: α1-adrenoceptor antagonist activity by a method based on that of Gillespie. To be noted: as described in GB 2136804A, read-out: pA2 for α1 -adrenoceptor antagonistic activity (converted). The source says:
(§1) The compounds of the invention may be tested for α2 -adrenoceptor antagonistic activity on the rat field stimulated vas deferens preparation using a modification of the method of Drew, Eur. J. Pharmac., 1977,42, 123-130 as described in our GB patent No. 2136804A Specification and for the α1 -antagonist activity by the method based on that of Gillespie Br. J. Pharmac 1972, 45 404-416, as also described in GB patent specification No. 2136804A.

In another assay the target is T2, α2 -adrenoceptor (Rattus norvegicus, UniProt P22909).
T2 construct: rat field stimulated vas deferens preparation; from tissue; host or cells: rat vas deferens, field stimulated
T2 sequence (P22909 1-465): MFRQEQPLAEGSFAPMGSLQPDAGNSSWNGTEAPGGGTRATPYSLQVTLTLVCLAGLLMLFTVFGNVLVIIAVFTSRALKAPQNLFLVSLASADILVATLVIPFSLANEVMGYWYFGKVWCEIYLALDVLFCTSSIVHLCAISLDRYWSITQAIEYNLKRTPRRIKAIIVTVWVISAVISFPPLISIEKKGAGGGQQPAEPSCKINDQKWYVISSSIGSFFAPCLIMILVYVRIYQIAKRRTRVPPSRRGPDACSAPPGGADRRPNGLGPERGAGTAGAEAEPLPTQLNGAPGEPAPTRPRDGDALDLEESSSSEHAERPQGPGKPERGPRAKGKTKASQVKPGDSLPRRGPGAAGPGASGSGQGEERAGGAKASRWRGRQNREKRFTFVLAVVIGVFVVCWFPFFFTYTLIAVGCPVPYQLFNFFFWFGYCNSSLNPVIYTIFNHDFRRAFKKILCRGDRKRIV
Nature of the assay: α2-adrenoceptor antagonistic activity on the rat field stimulated vas deferens preparation (modified method of Drew).
Text: as §1

On to `CS(=O)(=O)NCCN([C@@H]1CCN2CCc3c(oc4ccccc34)[C@@H]2C1)S(C)(=O)=O` (relative stereo) [Example 2, N-[(2β,12bα)-1,3,4,6,7,12b-Hexahydro-2H-benzo[b]furo [2,3-a]quinolizin-2-yl]-N-(2-methanesulphonamidoethyl) methanesulphonamide], for which the Kb at α1 -adrenoceptor is 0.275 µM; on α2 -adrenoceptor (rat field stimulated vas deferens preparation, read-out: pA2 for α2 -adrenoceptor antagonist activity (converted)) it was 0.00851 µM. Moreover, the “α2 /α1 selectivity [antilog of (α2 pA2 - α1 pA1)]” value at α2 -adrenoceptor (ratio from α2 and α1 pA2 values) is 32.
